From patent US10392347B2, “2,4-dihydroxy-nicotinamides as APJ agonists” (BRISTOL-MYERS SQUIBB COMPANY, priority 2015, dated 2019)

What follows are compounds tested against T1, human APJ receptor (Homo sapiens, UniProt P35414) (assay: Intracellular cAMP accumulation assay (APJ hcAMP, HTRF)). Details: HEK293 cells stably expressing human APJ; read-out: Human APJ cAMP EC50 Potency range.
T1 construct: expressed in transfected cells
T1 sequence (P35414 1-380): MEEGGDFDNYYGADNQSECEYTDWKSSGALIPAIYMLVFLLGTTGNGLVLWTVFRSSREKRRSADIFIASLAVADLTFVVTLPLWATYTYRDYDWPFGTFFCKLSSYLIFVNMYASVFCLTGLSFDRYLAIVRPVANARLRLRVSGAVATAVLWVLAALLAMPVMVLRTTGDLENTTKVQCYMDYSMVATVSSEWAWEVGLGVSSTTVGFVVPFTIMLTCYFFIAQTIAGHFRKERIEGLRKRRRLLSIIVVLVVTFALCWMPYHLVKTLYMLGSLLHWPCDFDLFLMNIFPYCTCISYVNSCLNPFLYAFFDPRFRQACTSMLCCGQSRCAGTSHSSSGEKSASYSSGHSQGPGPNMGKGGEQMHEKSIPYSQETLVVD
Type: cell-based
Method: Intracellular cAMP Accumulation Assay
HEK293 cells stably expressing human APJ receptor were used to assess the activity of compounds. Cultured cells were detached and resuspended in the cAMP Homogeneous Time-Resolved Fluorescence (HTRF) assay buffer (Cisbio cat; #62AM4PEJ). […] Serial dilutions of a compound together with assay buffer containing […] and 2 μM forskolin were added to each well containing 5,000 cells and incubated for 30 minutes at room temperature. Subsequently, cAMP D2 reagent was added in the lysis buffer followed by the EuK antibody (Cisbio; cat #62AM4PEJ) and incubated for 60 min. The fluorescence emission ratio was measured using fluorometer. The intracellular cAMP concentrations (compound-stimulated inhibition of forskolin-mediated cAMP production) were calculated by extrapolation from a standard curve using known cAMP concentrations. The EC50 values were obtained by fitting the data to a sigmoidal concentration-response curve with variable slope.
The EC50 value of each compound is presented at the end of the example description.
The biological activity of the exemplified compounds of this invention determined by the assay described above is shown at the end of each example.

SMILES | EC50
CCCCc1nc(O)c(C(=O)N2CCC(c3ccc(Cl)cn3)C2)c(O)c1-c1c(OC)cccc1OC (single isomer, unassigned) [Example 74, (6-butyl-5-(2,6-dimethoxyphenyl)-2,4-dihydroxypyridin-3-yl)(3-(5-chloropyridin-2-yl)pyrrolidin-1-yl)methanone] | 0.01 to 10 nM

Same assay, conditions: HEK293 cells stably expressing human APJ; read-out: Human cAMP Potency range

SMILES | EC50
CCNCc1nc(O)c(C(=O)N2CCC(c3cccc(F)c3)C2)c(O)c1-c1c(OC)cccc1OC (single isomer, unassigned) [Example 149, 5-(2,6-dimethoxyphenyl)-6-[(ethylamino)methyl]-3-[3-(3-fluorophenyl)pyrrolidine-1-carbonyl]pyridine-2,4-diol] | 100 to 300 nM

Same assay, conditions: Table 1; HEK293 cells stably expressing human APJ, forskolin-stimulated cAMP; read-out: APJ cAMP EC50

SMILES | EC50
CCCCc1nc(O)c(C(=O)N(C)CCCCc2ccccc2)c(O)c1-c1c(OC)cccc1OC [Example 2, 6-butyl-5-(2,6-dimethoxyphenyl)-2,4-dihydroxy-N-methyl-N-(4-phenylbutyl)pyridine-3-carboxamide] | 100 to 300 nM
CCCCc1nc(O)c(C(=O)N2CCN(c3nccn3C)CC2)c(O)c1-c1c(OC)cccc1OC [Example 3, 6-butyl-5-(2,6-dimethoxyphenyl)-3-[4-(1-methyl-1H-imidazol-2-yl)piperazine-1-carbonyl]pyridine-2,4-diol] | 100 to 300 nM
CCCCc1nc(O)c(C(=O)N2CCC(O)(c3cccnc3)CC2)c(O)c1-c1c(OC)cccc1OC [Example 4, 6-butyl-5-(2,6-dimethoxyphenyl)-3-[4-hydroxy-4-(pyridin-3-yl)piperidine-1-carbonyl]pyridine-2,4-diol] | 100 to 300 nM
CCCCc1nc(O)c(C(=O)N2CCC(c3nc(CCC)no3)CC2)c(O)c1-c1c(OC)cccc1OC [Example 5, 6-butyl-5-(2,6-dimethoxyphenyl)-3-[4-(3-propyl-1,2,4-oxadiazol-5-yl)piperidine-1-carbonyl]pyridine-2,4-diol] | 10 to 100 nM
CCCCc1nc(O)c(C(=O)N2CCN(c3ccc(Cl)cn3)CC2)c(O)c1-c1c(OC)cccc1OC [Example 6, 6-butyl-3-[4-(5-chloropyridin-2-yl)piperazine-1-carbonyl]-5-(2,6-dimethoxyphenyl)pyridine-2,4-diol] | 10 to 100 nM
CCCCc1nc(O)c(C(=O)N2CCN(c3ccc(OCCOC)cc3)CC2)c(O)c1-c1c(OC)cccc1OC [Example 7, 6-butyl-5-(2,6-dimethoxyphenyl)-3-{4-[4-(2-methoxyethoxy)phenyl]piperazine-1-carbonyl}pyridine-2,4-diol] | 100 to 300 nM
CCCCc1nc(O)c(C(=O)N2CCN(c3ccc(NC(=O)OC)cc3)CC2)c(O)c1-c1c(OC)cccc1OC [Example 10, methyl N-(4-{4-[6-butyl-5-(2,6-dimethoxyphenyl)-2,4-dihydroxypyridine-3-carbonyl]piperazin-1-yl}phenyl)carbamate] | 10 to 100 nM
CCCCc1nc(O)c(C(=O)N2CCN(c3ncccc3C(F)(F)F)CC2)c(O)c1-c1c(OC)cccc1OC [Example 11, 6-butyl-5-(2,6-dimethoxyphenyl)-3-{4-[3-(trifluoromethyl)pyridin-2-yl]piperazine-1-carbonyl}pyridine-2,4-diol] | 10 to 100 nM
CCCCc1nc(O)c(C(=O)N2CCN(c3ccccc3OC)CC2)c(O)c1-c1c(OC)cccc1OC [Example 12, 6-butyl-5-(2,6-dimethoxyphenyl)-3-[4-(2-methoxyphenyl)piperazine-1-carbonyl]pyridine-2,4-diol] | 0.01 to 10 nM
CCCCc1nc(O)c(C(=O)N2CCN(c3nccc(C(F)(F)F)n3)CC2)c(O)c1-c1c(OC)cccc1OC [Example 13, 6-butyl-5-(2,6-dimethoxyphenyl)-3-{4-[4-(trifluoromethyl)pyrimidin-2-yl]piperazine-1-carbonyl}pyridine-2,4-diol] | 10 to 100 nM
CCCCc1nc(O)c(C(=O)N2CCC(Cc3ccccc3)CC2)c(O)c1-c1c(OC)cccc1OC [Example 14, 3-(4-benzylpiperidine-1-carbonyl)-6-butyl-5-(2,6-dimethoxyphenyl)pyridine-2,4-diol] | 0.01 to 10 nM
CCCCc1nc(O)c(C(=O)N(C)CCc2ccccn2)c(O)c1-c1c(OC)cccc1OC [Example 15, 6-butyl-5-(2,6-dimethoxyphenyl)-2,4-dihydroxy-N-methyl-N-[2-(pyridin-2-yl)ethyl]pyridine-3-carboxamide] | 0.01 to 10 nM
CCCCc1nc(O)c(C(=O)N2CCN(C(c3ccccc3)c3ccccc3)CC2)c(O)c1-c1c(OC)cccc1OC [Example 16, 6-butyl-5-(2,6-dimethoxyphenyl)-3-[4-(diphenylmethyl)piperazine-1-carbonyl]pyridine-2,4-diol] | 0.01 to 10 nM
CCCCc1nc(O)c(C(=O)N2CCC(c3[nH]cnc3C)CC2)c(O)c1-c1c(OC)cccc1OC [Example 17, 6-butyl-5-(2,6-dimethoxyphenyl)-3-[4-(4-methyl-1H-imidazol-5-yl)piperidine-1-carbonyl]pyridine-2,4-diol] | 10 to 100 nM
CCCCc1nc(O)c(C(=O)N2CCN(c3ccc(OC)cc3)CC2)c(O)c1-c1c(OC)cccc1OC [Example 18, 6-butyl-5-(2,6-dimethoxyphenyl)-3-[4-(4-methoxyphenyl)piperazine-1-carbonyl]pyridine-2,4-diol] | 10 to 100 nM
CCCCc1nc(O)c(C(=O)N2CCC(c3ccccc3OC)CC2)c(O)c1-c1c(OC)cccc1OC [Example 19, 6-butyl-5-(2,6-dimethoxyphenyl)-3-[4-(2-methoxyphenyl)piperidine-1-carbonyl]pyridine-2,4-diol] | 10 to 100 nM
CCCCc1nc(O)c(C(=O)N2CCC(c3cc(-c4ccco4)n[nH]3)CC2)c(O)c1-c1c(OC)cccc1OC [Example 20, 6-butyl-5-(2,6-dimethoxyphenyl)-3-{4-[3-(furan-2-yl)-1H-pyrazol-5-yl]piperidine-1-carbonyl}pyridine-2,4-diol] | 10 to 100 nM
CCCCc1nc(O)c(C(=O)N2CCN(c3cccnn3)CC2)c(O)c1-c1c(OC)cccc1OC [Example 21, 6-butyl-5-(2,6-dimethoxyphenyl)-3-[4-(pyridazin-3-yl)piperazine-1-carbonyl]pyridine-2,4-diol] | 100 to 300 nM
CCCCc1nc(O)c(C(=O)N2CCN(c3ccncc3)CC2)c(O)c1-c1c(OC)cccc1OC [Example 22, 6-butyl-5-(2,6-dimethoxyphenyl)-3-[4-(pyridin-4-yl)piperazine-1-carbonyl]pyridine-2,4-diol] | 100 to 300 nM
CCCCc1nc(O)c(C(=O)N2CCC(c3ccccc3Cl)CC2)c(O)c1-c1c(OC)cccc1OC [Example 23, 6-butyl-3-[4-(2-chlorophenyl)piperidine-1-carbonyl]-5-(2,6-dimethoxyphenyl)pyridine-2,4-diol] | 10 to 100 nM
CCCCc1nc(O)c(C(=O)N2CCC(c3ccc(C(N)=O)cc3)CC2)c(O)c1-c1c(OC)cccc1OC [Example 24, 4-{1-[6-butyl-5-(2,6-dimethoxyphenyl)-2,4-dihydroxypyridine-3-carbonyl]piperidin-4-yl}benzamide] | 10 to 100 nM

Same assay, conditions: Table 2; HEK293 cells stably expressing human APJ, forskolin-stimulated cAMP; read-out: APJ cAMP EC50

SMILES | EC50
CCCCc1nc(O)c(C(=O)N2CCCC2c2ccccn2)c(O)c1-c1c(OC)cccc1OC (racemic) [Example 8, 6-butyl-5-(2,6-dimethoxyphenyl)-3-[2-(pyridin-2-yl)pyrrolidine-1-carbonyl]pyridine-2,4-diol] | 0.01 to 10 nM
CCCCc1nc(O)c(C(=O)N2CCC(c3nc(-c4cc(C)c(OC)cc4Cl)c(C)s3)C2)c(O)c1-c1c(OC)cccc1OC (racemic) [Example 9, 6-butyl-3-{3-[4-(2-chloro-4-methoxy-5-methylphenyl)-5-methyl-1,3-thiazol-2-yl]pyrrolidine-1-carbonyl}-5-(2,6-dimethoxyphenyl)pyridine-2,4-diol] | 0.01 to 10 nM
CCCCc1nc(O)c(C(=O)N2CCC(c3cccc(Cl)c3)C2)c(O)c1-c1c(OC)cccc1OC (single isomer, unassigned) [Example 37, 6-butyl-3-[3-(3-chlorophenyl)pyrrolidine-1-carbonyl]-5-(2,6-dimethoxyphenyl)pyridine-2,4-diol] | 0.01 to 10 nM
CCCCc1nc(O)c(C(=O)N2CCC(c3cccc(Cl)c3)C2)c(O)c1-c1c(OC)cccc1OC (single isomer, unassigned) [Example 38, 6-butyl-3-[3-(3-chlorophenyl)pyrrolidine-1-carbonyl]-5-(2,6-dimethoxyphenyl)pyridine-2,4-diol] | 0.01 to 10 nM
CCCCc1nc(O)c(C(=O)N2CCC(c3ccc(F)cc3)C2)c(O)c1-c1c(OC)cccc1OC (single isomer, unassigned) [Example 39, 6-butyl-5-(2,6-dimethoxyphenyl)-3-[3-(4-fluorophenyl)pyrrolidine-1-carbonyl]pyridine-2,4-diol] | 0.01 to 10 nM
CCCCc1nc(O)c(C(=O)N2CCC(c3ccc(F)cc3)C2)c(O)c1-c1c(OC)cccc1OC (single isomer, unassigned) [Example 40, 6-butyl-5-(2,6-dimethoxyphenyl)-3-[3-(4-fluorophenyl)pyrrolidine-1-carbonyl]pyridine-2,4-diol] | 0.01 to 10 nM
